The source of these data is patent US20170027973A1, “MODULARION OF INVARIANT NATURAL KILLER T CELLS IN THE TREATMENT OF SEPSIS” (LONDON HEALTH SCIENCES CENTRE RESEARCH INC., priority 2014, published 2017).

What all share (type): in vivo, mouse
Test [1] deals with bacterial counts in blood and multiple organs. Description: Microbial growth (CFU) from tissue homogenates and peripheral blood of septic mice. The following applies: septic B6 mice; compared between vehicle, OCH and KRN7000 treatments. The procedure:
Whole hearts, lungs (left and right), kidneys (left and right), spleen, and liver were removed from euthanized mice and homogenized in 5 mL of PBS. Homogenates were serially diluted 1:10 in PBS and plated on bovine heart infusion (BHI) agar. Plates were grown aerobically at 37° C. overnight to determine tissue colony-forming units (CFU). Intra-cardiac blood (10 μL) was collected in a heparinized syringe from the right ventricle, serially diluted 1:10 with PBS, and plated on BHIagar to determine blood CFU.

Test [2] relates to B6 mice with intra-abdominal sepsis (IAS). The experiment in a line: Murine intra-abdominal sepsis (IAS) model: survival and murine sepsis score (MSS). As to conditions: septic B6 mice; for median survival: 4 μg i.p. single dose, vehicle 24 hours; for murine sepsis score (MSS) after 24 h: compared to vehicle treatment. On the procedure:
Stool from the cecum of euthanized naïve B6 mice was expressed through an enterotomy, homogenized, and suspended in 0.9% normal saline (NS) to produce a fecal slurry at a final concentration of 90 mg/mL, for use in experiments on the same day. Mice were injected intraperitoneally with 500 μL fecal slurry or 0.9% normal saline (sham group). The mice were monitored and scored by two independent investigators—one of whom was blinded to the treatment—every 2-3 hours for the first 12 hours, and then every 1-2 hours thereafter. A murine sepsis score (MSS) was assigned to each mouse based on activity, eye movement, response to exogenous stimuli, breathing rate and pattern, and degree of piloerection (Shrum et al. BMC Research Notes 2014, 7:233). The MSS is a reliable and robust scoring system that has excellent inter-rater reliability (intra-class coefficient=0.96), high internal consistency (Cronbach α=0.92), and correlates with levels of certain pro-inflammatory cytokines such as IFN-γ and IL-1β during the experimental timeline (Shrum et al. BMC Research Notes 2014, 7:233). Mice were euthanized at 24 hours, or earlier if they were deemed to be in significant distress based on our scoring model. Euthanasia was carried out as described above. At the time of sacrifice, intra-cardiac blood was drawn into 1.5 mL micro-centrifuge tubes (BD Biosciences) and centrifuged for serum at 1000×g for 30 minutes at 4° C.
(§1) Lyophilized OCH was generously provided by the National Institutes of Health (NIH) Tetramer Core Facility (Emory University, Atlanta, Ga.). Each vial containing 0.2 mg of OCH was solubilized in a vehicle solution containing 1 mL of sterile distilled water, 0.5% Tween 20, 56 mg of sucrose and 7.5 mg of histidine, and stored as aliquots at 4° C. until use. KRN7000 (α-GalCer, C26:0/C18:0) was purchased from Funakoshi Co. Ltd. (Tokyo, Japan), solubilized at 1 mg/ml in dimethylsulphoxide (DMSO), and stored as aliquots at −20° C. until use (29); the control vehicle was 2% DMSO in phosphate-buffered saline (PBS). C20:2 was synthesized and used as previously published (30, 31). For in vivo experiments, mice were injected intraperitoneally (i.p.) with a single dose of glycolipid (4 μg/dose) (30) within twenty minutes after induction of IAS.

The test system of another test is serum IL-4 and IFN-γ. Description: Serum IL-4 and IFN-γ by ELISA after i.p. glycolipid injection into naïve B6 mice. On the procedure:
FIG. 10: Effect of glycolipid agonists on cytokine expression in naïve B6 mice, and on iNKT cells in septic B6 mice. (a) Naïve B6 mice were injected i.p. with 4 μg OCH or KRN7000 or C20:2, and bled at 2, 12, and 24 hours post-injection. Serum samples were assayed for IL-4 and IFN-γ by enzyme-linked immunosorbent assay (ELISA). […] Vehicle-treated mice had cytokine levels below limits of detection. (b) B6 mice were given an intraperitoneal injection of fecal slurry (500 μL of a 90 mg/mL solution) to induce IAS and concomitantly treated with 4 μg of vehicle, OCH, or KRN7000. After 24 hours, mice were sacrificed, and cell suspensions from the liver and spleen were stained for the flow cytometric detection of CD1d tetramer+ TCRβ+iNKT cells.
as §1
Cytokine concentrations were determined by commercially available specific ELISA assays for IL-4 and IFN-γ (Ready-Set-Go kits, eBioscience). ODs were measured on a Benchmark Microplate Reader (Bio-Rad) at a wavelength of 450 nm for both cytokines.

The next test deals with splenocyte apoptosis. Description: Histology (H&E) and TUNEL staining of spleen, liver and omentum of septic B6 mice. As to conditions: for liver histopathology: among vehicle-, OCH- and KRN-treated mice; for lymphocytes in the omentum: histology; for histopathological scoring of degree of apoptosis in spleen: vehicle-treated: moderate. An excerpt:
FIG. 6: Histopathology of septic B6 mice treated with glycolipid agonists of iNKT cells. […] Lymphocyte migration to the omentum is also ameliorated in OCH-treated mice compared to vehicle- and KRN7000-treated mice. There were no histopathological differences in the liver. Images are representative of 4 animals per treatment group (size bar, 50 μm). (b) Histopathological scoring of the degree of apoptosis observed within the spleens of sham and septic B6 mice treated with vehicle, KRN7000, or OCH (n=4 animals per treatment group). Apoptosis was defined histologically by the presence of cell clusters with nuclear shrinkage (karyorrhexis), dark eosinophilic cytoplasm, intact plasma membrane, and relative paucity of surrounding inflammatory cells within the splenic follicles on H&E staining. Scores assigned to each animal by a blinded independent pathologist were as follows: 0 for complete absence of apoptosis; 1 for mild presence of apoptosis (0-15% per follicle); 2 for moderate apoptosis (16-30% per follicle); and 3 for severe apoptosis (31-45% per follicle). ***p<0.0001 by two-tailed Mann Whitney U test.
Liver, spleen, and omentum from sham B6 mice, and vehicle-, OCH-, and KRN7000-treated septic B6 mice were fixed in 10% neutral buffered formalin, embedded in paraffin, sectioned, and stained with H&E or subjected to TUNEL staining using a commercially available kit (Calbiochem). At least four stained sections per spleen from four animals per treatment group were examined and scored for apoptosis by a board-certified veterinary pathologist (Welch) who was blinded to the study design. Apoptosis was defined histologically by the presence of cell clusters with nuclear shrinkage (karyorrhexis), dark eosinophilic cytoplasm, intact plasma membrane, and relative paucity of surrounding inflammatory cells within the splenic follicles on H&E staining (34). Scores assigned to each animal were as follows: 0 for complete absence of apoptosis; 1 for mild presence of apoptosis (0-15% per follicle); 2 for moderate apoptosis (16-30% per follicle); and 3 for severe apoptosis (31-45% per follicle). Photomicrographs were taken using a Nikon DS-Fi1 digital camera using NIS-elements software.

Consider `CCCCCCCCCCCCCCCCCCCCCCCCCC(=O)N[C@@H](CO[C@H]1O[C@H](CO)[C@H](O)[C@H](O)[C@H]1O)[C@H](O)[C@H](O)CCCCCCCCCCCCCC` [KRN7000, reference compound], for which, in test [1], the “microbial load (bacterial counts in blood and multiple organs)” value was “similar”. For the same molecule, in test [2], the “response to auditory and touch stimuli” value is on record as “non-responsive”; the median survival came to 22 h; the “murine sepsis score (MSS) after 24 h” value is “no statistical differences”. Besides, in test [2] (by 24 hours), the mortality worked out at 100%. Moreover, in test [2] (most mice, post-sepsis), the “time to respiratory distress (laboured breathing and reduced respiratory rates)” value was not above 15 h. In addition, in the test on serum IL-4 and IFN-γ (4 μg i.p.), the “serum levels of IFN-γ between 12 and 24 hours” value is reported as “elevated”. For the same molecule, in the test with splenocyte apoptosis, the liver histopathology result is reported as “did not observe overt differences”, the “lymphocytes in the omentum” value was “significant increase” and the “histopathological scoring of degree of apoptosis in spleen” value is “severe (3 for severe apoptosis (31-45% per follicle))”.
On to `CCCCCCCCCCCCCCCCCCCCCCCC(=O)N[C@@H](COC1OC(CO)C(O)C(O)C1O)[C@H](O)[C@H](O)CCCCC` (some centres unmarked) [OCH], for which the “microbial load (bacterial counts in blood and multiple organs)” value in test [1] is given as “did not worsen”. Also, in test [2], the “response to auditory and touch stimuli” value is given as “more responsive”; the median survival turned out to be 28 h; the “murine sepsis score (MSS) after 24 h” value is recorded as “significantly lower”. The same molecule showed a survival time in test [2] (4 μg i.p.) of more than 24 h. In test [2] (observed up to 24 hours), the respiratory status result is recorded as “relatively normal respiratory rates”. Moreover, in test [2] (up to 24 hours), the “course of MSS over time” value is “reached a plateau”. The “serum IFN-γ at 24 hours” value in the test with serum IL-4 and IFN-γ (4 μg i.p.) is given as “almost undetectable”. In the test with serum IL-4 and IFN-γ (4 μg i.p., ELISA), the “time of peak of serum IFN-γ” value turned out to be 12 h and the “time of peak of serum IL-4” value was found to be 2 h. Moreover, the “serum IL-4 at 12 to 24 hours” value with serum IL-4 and IFN-γ (4 μg i.p., relative to 2 hour peak) was “significantly reduced”. The “IL-4:IFN-γ ratio based on peak values” in the test on serum IL-4 and IFN-γ (OCH compared to KRN7000) is on record as “higher”. Further, in the test on splenocyte apoptosis, the liver histopathology entry was “did not observe overt differences”, the “lymphocytes in the omentum” value was “fewer” and the “histopathological scoring of degree of apoptosis in spleen” value is reported as “mild (1 for mild presence of apoptosis (0-15% per follicle))”. In addition, the “apoptotic cells within the spleen (H&E, TUNEL)” value with splenocyte apoptosis (compared to vehicle- and KRN7000-treated mice) is listed as “significant reduction”.
